What all share (type): biochemical
The target of one experiment is kappa opioid receptor (Homo sapiens, UniProt P41145). The note with it: read-out: calc Ki (nM) k.
Another experiment concerns the target Mu opioid receptor (Homo sapiens, UniProt P35372). The note with it: read-out: calc Ki (nM) μ.
In the next experiment the target is delta opioid receptor (Homo sapiens, UniProt P41143). The following applies: read-out: calc Ki (nM) δ2.
The target in experiment [1] is T1, human opioid receptor-like receptor (ORL-1) (Homo sapiens, UniProt P41146).
T1 construct: host or cells: HEK-293
The note with it: read-out: Nociceptin Affinity calc Ki.

Bounds are passed on as bounds.

This is an account of results in patent US7678809B2 (priority 1999, dated 2010).

T1 sequence (P41146 whole entry): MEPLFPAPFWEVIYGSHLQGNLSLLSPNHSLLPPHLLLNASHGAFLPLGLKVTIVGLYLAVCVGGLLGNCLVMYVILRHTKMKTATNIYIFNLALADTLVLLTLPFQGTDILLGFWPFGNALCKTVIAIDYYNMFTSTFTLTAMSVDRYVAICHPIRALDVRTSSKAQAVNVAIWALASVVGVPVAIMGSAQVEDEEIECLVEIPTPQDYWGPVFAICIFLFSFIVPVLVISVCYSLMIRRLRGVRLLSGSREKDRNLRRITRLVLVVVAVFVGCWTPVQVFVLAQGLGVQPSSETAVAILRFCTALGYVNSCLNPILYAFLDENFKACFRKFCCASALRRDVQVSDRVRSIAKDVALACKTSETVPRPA
delta opioid receptor, sequence (P41143 whole entry): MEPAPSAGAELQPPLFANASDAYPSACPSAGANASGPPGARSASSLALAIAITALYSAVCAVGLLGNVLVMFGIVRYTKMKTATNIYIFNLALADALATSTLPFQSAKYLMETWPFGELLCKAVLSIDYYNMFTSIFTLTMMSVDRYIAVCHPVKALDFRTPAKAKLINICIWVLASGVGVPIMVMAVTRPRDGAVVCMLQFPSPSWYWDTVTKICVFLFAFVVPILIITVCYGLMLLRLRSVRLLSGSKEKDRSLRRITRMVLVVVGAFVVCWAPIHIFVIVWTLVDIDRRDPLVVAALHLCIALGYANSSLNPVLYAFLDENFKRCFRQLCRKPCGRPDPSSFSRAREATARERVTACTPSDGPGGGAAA
kappa opioid receptor, sequence (P41145 whole entry): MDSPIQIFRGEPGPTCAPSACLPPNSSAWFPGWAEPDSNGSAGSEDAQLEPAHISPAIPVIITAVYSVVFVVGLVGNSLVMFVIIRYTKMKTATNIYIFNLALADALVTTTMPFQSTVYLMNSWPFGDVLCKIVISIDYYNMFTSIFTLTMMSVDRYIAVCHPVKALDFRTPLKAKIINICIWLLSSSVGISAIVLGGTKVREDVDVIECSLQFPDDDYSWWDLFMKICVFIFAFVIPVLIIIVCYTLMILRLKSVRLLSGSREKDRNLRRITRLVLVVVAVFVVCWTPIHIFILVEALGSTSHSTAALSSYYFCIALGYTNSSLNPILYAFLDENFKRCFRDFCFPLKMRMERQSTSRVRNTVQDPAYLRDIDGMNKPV
Mu opioid receptor, sequence (P35372 whole entry): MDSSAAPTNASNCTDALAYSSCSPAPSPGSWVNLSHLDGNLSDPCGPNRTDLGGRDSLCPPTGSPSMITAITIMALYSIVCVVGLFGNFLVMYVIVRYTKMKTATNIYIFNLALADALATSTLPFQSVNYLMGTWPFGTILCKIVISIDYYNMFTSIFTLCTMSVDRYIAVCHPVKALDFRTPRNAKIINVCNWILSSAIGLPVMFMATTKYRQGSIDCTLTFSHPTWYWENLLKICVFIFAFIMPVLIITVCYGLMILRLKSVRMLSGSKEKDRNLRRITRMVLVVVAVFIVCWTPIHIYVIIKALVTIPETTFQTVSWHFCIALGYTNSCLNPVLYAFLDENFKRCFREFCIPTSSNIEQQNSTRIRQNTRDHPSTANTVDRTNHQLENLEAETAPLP

A word on the Ki: it is a dissociation constant, usually derived from enzyme kinetics or from competition with a known ligand. Consider “1-[4-(4-propyl-1,2-cyclohexene)-4-piperidinyl]-1,3-dihydro-2H-1,3-benzamidazol-2-one”, for which the Ki on kappa opioid receptor is 1500 nM; on Mu opioid receptor, 265 nM; on delta opioid receptor, 1220 nM; in experiment [1] it was 469 nM.

As to “1-[4-(4-propylcyclohexane)-4-piperidinyl]-3-[1-oxo-ethyl]-1,3-dihydro-2H-1,3-benzamidazol-2-one”, the Ki on kappa opioid receptor is 1600 nM; on Mu opioid receptor, 23.2 nM; on delta opioid receptor it was greater than 10000 nM; in experiment [1], 464 nM.

Turning to `O=c1[nH]c2ccccc2n1C1CCN(CCCC(c2ccc(F)cc2)c2ccc(F)cc2)CC1` [1-[4-(4,4-difluorophenylbutyl)-4-piperidinyl]-1,3-dihydro-2H-1,3-benzamidazol-2-one], the inhibition constant (Ki) in experiment [1] is 420 nM.
